We go through 16 compounds from publication PMC8707145, “Synthesis, Molecular Docking and Antiplasmodial Activities of New Tetrahydro-β-Carbolines” (International Journal of Molecular Sciences, 2021).

The subject of data set [1] is P. falciparum D10 (CQ-sensitive) strain. Description: P. falciparum drug susceptibility assay (pLDH), D10 strain. To be noted: Plasmodium falciparum; D10 (CQ-sensitive) strain, 72 h, pLDH; read-out: P. falciparum IC50 D10. It is filed as cell-based. The procedure:
Plasmodium falciparum cultures were established according to the method of Trager and Jensen, with slight modifications. […] Drugs were introduced into 96-well flat-bottomed microplates and serial dilutions made. […] Parasite growth was determined spectrophotometrically (OD650) by measuring the activity of parasite lactate dehydrogenase (pLDH), according to a modified version of the method of Makler, in both control and drug-treated cultures.

Data set [2] has as its system P. falciparum W2 (CQ-resistant) strain. Briefly: P. falciparum drug susceptibility assay (pLDH), W2 strain. It is filed as cell-based, Plasmodium falciparum. As to conditions: for IC50: Plasmodium falciparum, W2 (CQ-resistant) strain, 72 h, pLDH, read-out: P. falciparum IC50 W2; for RI (resistance index): RI = IC50 CQ resistant P. falciparum strain/IC50 CQ sensitive P. falciparum strain. On the procedure:
Plasmodium falciparum cultures were established according to the method of Trager and Jensen, with slight modifications. The CQ-susceptible strain, D10, and the CQ-resistant strain, W2, were maintained in human type A-positive red blood cells at 5% hematocrit in RPMI 1640 medium with the addition of 1% AlbuMax, 0.01% hypoxanthine, 20 mM Hepes, and 2 mM glutamine. Cultures were maintained at 37 °C in a gas mixture consisting of 1% O2, 5% CO2, and 94% N2. Compounds were dissolved in DMSO and diluted with medium to achieve the required concentrations (final DMSO concentration <1%, which is non-toxic to the parasite). Drugs were introduced into 96-well flat-bottomed microplates and serial dilutions made. Asynchronous cultures with parasitaemia of 1–1.5% and 1% final hematocrit were aliquoted into the plates and incubated for 72 h at 37 °C. Parasite growth was determined spectrophotometrically (OD650) by measuring the activity of parasite lactate dehydrogenase (pLDH), according to a modified version of the method of Makler, in both control and drug-treated cultures.

A short description of data set [3]: Cytotoxicity assay on HMEC-1 cell line (MTT). In kind it is cell-based, human. As to conditions: human, HMEC-1 cells; HMEC-1, MTT, 72 h. The procedure: (§1) The long-term human microvascular endothelial cell line (HMEC-1) was maintained in MCDB 131 medium supplemented with 10% fetal calf serum, 10 ng/mL of epidermal growth factor, 1 µg/mL of hydrocortisone, 2 mM glutamine and 20 mM Hepes buffer. For the cytotoxicity assays, cells were treated with serial dilutions of test compounds and cell proliferation evaluated using the MTT assay. Plates were incubated for 72 h at 37 °C in 5% CO2, then 20 µL of a 5 mg/mL solution of 3-(4,5-dimethylthiazol-2-yl)-2,5-diphenyltetrazolium bromide (MTT) in PBS was added for an additional 3 h at 37 °C. The plates were then centrifuged, the supernatants discarded, and the dark blue formazan crystals dissolved using 100 µL of lysing buffer consisting of 20% (w/v) of a solution of SDS, 40% of N,N dimethylformamide in H2O, at pH 4.7 adjusted with 80% acetic acid. The plates were then read on a microplate reader (Synergy 4 Bio-Tek Instruments, Thermo Fisher Scientific, Waltham, MA, USA) at a test wavelength of 550 nm and a reference wavelength of 650 nm. All the tests were performed in triplicate at least three times.

Data set [4] deals with human microvascular endothelial (HMEC-1) cell line. Description: Cytotoxicity assay on HMEC-1 cell line (MTT). In kind it is cell-based. As to conditions: for SI D10: SI = IC50 HMEC-1/IC50 P. falciparum D10 strain; for SI W2: SI = IC50 HMEC-1/IC50 P. falciparum W2 strain. On the procedure:
as §1

Another data set relates to P. falciparum. As to conditions: read-out: 50% inhibitory concentration (IC50); range of values; no diminished potency against drug-resistant strains; ref [8]; cited from earlier work.
Data set [5] in a line: Determination of hemolytic activity. In kind it is cell-based. As to conditions: human erythrocytes, released hemoglobin, read-out: level of hemolysis. On the procedure:
We also sought to investigate the hemolytic potential of the synthetized compounds. […] We incubated these compounds at a concentration of 10 µM, with human erythrocytes, and then, by measuring the released hemoglobin, we assessed their potential harmful effects on these cells. The measured level of hemolysis was less than 5% for all agents, which proves that the compounds are not hemolytic. It is worth emphasizing at this point that this type of test is extremely important to confirm that the observed inhibitory activity against Plasmodium is a result of a compound acting directly upon it and not as a result of red blood cell lysis.
The study protocol was approved by the Bioethics Commission at the Lower Silesian Medical Chamber (1/PNHAB/2018, approval date 14 February 2018), and experiments were performed as previously described. Compounds dissolved in DMSO were added in a volume corresponding to a final concentration of 10 µM in the sample. Negative (erythrocytes in PBS buffer), positive (erythrocytes in distilled water), and DMSO controls were also prepared.

A further data set relates to P. falciparum Dd2 strain. Also noted: method as in PMID 29072835. To be noted: ref [10], read-out: IC50 growth of P. falciparum Dd2 strain; cited from earlier work.

For `O=C(NC1CCCCC1)[C@@H]1Cc2c([nH]c3ccccc23)[C@H](c2ccc(Cl)cc2)N1` (racemic) [1RS,3RS-13, (1SR,3SR)-1-(4-chlorophenyl)-N-cyclohexyl-2,3,4,9-tetrahydro-1H-pyrido[3,4-b]indole-3-carboxamide], in data set [1], the IC50 worked out at 16.1 ± 3.36 µM. Also, in data set [2], the IC50 was determined as 13.5 ± 1.99 µM and the “RI (resistance index)” value is listed as 0.84. Moreover, the IC50 at 72 h in data set [3] worked out at 53.8 ± 21.9 µM. In addition, in data set [4], the “SI D10” value is 3.35 and the “SI W2” value came out at 4.00.
With `O=C(NC1CCCCC1)[C@@H]1Cc2c([nH]c3ccccc23)[C@@H](c2ccc(Cl)cc2)N1` (racemic) [1RS,3SR-13, (1RS,3SR)-1-(4-chlorophenyl)-N-cyclohexyl-2,3,4,9-tetrahydro-1H-pyrido[3,4-b]indole-3-carboxamide], in data set [1], the IC50 is 12.5 ± 0.71 µM. Also, in data set [2], the IC50 amounted to 9.13 ± 0.83 µM and the “RI (resistance index)” value is on record as 0.73. The IC50 at 72 h in data set [3] was greater than 123 µM.
Consider `C[C@H]1Cc2c([nH]c3cc(Cl)c(F)cc23)[C@@]2(N1)C(=O)Nc1ccc(Cl)cc12` [Cipargamin], for which the IC50 with P. falciparum was 0.0005 to 0.0014 µM.
In the case of `O=C(NC1CCCCCCC1)C1Cc2c([nH]c3ccccc23)CN1` (centres unmarked) [Compound 2, N-cyclooctyl-2,3,4,9-tetrahydro-1H-pyrido[3,4-b]indole-3-carboxamide], in data set [1], the IC50 amounted to 21.9 ± 5.82 µM. Also, in data set [2], the IC50 amounted to 10.1 ± 2.14 µM and the “RI (resistance index)” value was determined as 0.46.
Regarding `CC1NC(C(=O)N2CCCCC2)Cc2c1[nH]c1ccccc21` (centres unmarked) [Compound 3, (1-methyl-2,3,4,9-tetrahydro-1H-pyrido[3,4-b]indol-3-yl)(piperidin-1-yl)methanone], in data set [1], the IC50 was 13.2 ± 2.85 µM. In data set [2], the IC50 turned out to be 9.6 ± 0.78 µM and the “RI (resistance index)” value is 0.73. The IC50 at 72 h in data set [3] turned out to be 157 ± 42.5 µM. Moreover, in data set [4], the “SI D10” value was found to be 11.93 and the “SI W2” value was determined as 16.37. The hemolysis at 10 µM in data set [5] was less than 5%.
For the compound `CC1NC(C(=O)NC2CCCCC2)Cc2c1[nH]c1ccccc21` (centres unmarked) [Compound 4, N-cyclohexyl-1-methyl-2,3,4,9-tetrahydro-1H-pyrido[3,4-b]indole-3-carboxamide], the IC50 in data set [1] is 21.4 ± 4.7 µM; in data set [2], 20.1 ± 2.79 µM. For the same compound, in data set [2], the “RI (resistance index)” value is listed as 0.94.
Turning to `CC1NC(C(=O)NCC2CCCCC2)Cc2c1[nH]c1ccccc21` (centres unmarked) [Compound 5, N-(cyclohexylmethyl)-1-methyl-2,3,4,9-tetrahydro-1H-pyrido[3,4-b]indole-3-carboxamide], the IC50 in data set [1] turned out to be 33.5 ± 7.58 µM. In addition, in data set [2], the IC50 is 16.2 ± 4.11 µM and the “RI (resistance index)” value is listed as 0.48.
As for `CCC1NC(C(=O)NC23CC4CC(CC(C4)C2)C3)Cc2c1[nH]c1ccccc21` (centres unmarked) [Compound 6, N-(Adamantan-1-yl)-1-ethyl-2,3,4,9-tetrahydro-1H-pyrido[3,4-b]indole-3-carboxamide], the IC50 in data set [1] came out at 9.73 ± 0.96 µM. Also, in data set [2], the IC50 was determined as 11.4 ± 0.82 µM and the “RI (resistance index)” value is reported as 1.17. In addition, the IC50 at 72 h in data set [3] turned out to be 21.1 ± 8.82 µM. Further, in data set [4], the “SI D10” value is given as 2.17 and the “SI W2” value was 1.86.
As to `CCCCCCCCC1NC(C(=O)NCCC(C)(C)C)Cc2c1[nH]c1ccccc21` (centres unmarked) [Compound 7, N-(3,3-dimethylbutyl)-1-octyl-2,3,4,9-tetrahydro-1H-pyrido[3,4-b]-indole-3-carboxamide], in data set [1], the IC50 came to 4.45 ± 0.83 µM. In data set [2], the IC50 was 4 ± 0.53 µM and the “RI (resistance index)” value is 0.90. Besides, in data set [3], the IC50 at 72 h stood at 72 ± 22.4 µM. Besides, in data set [4], the “SI D10” value is recorded as 16.18 and the “SI W2” value came to 18.00. In data set [5], the hemolysis at 10 µM is less than 5%.
Turning to `CC(C)(C)CCNC(=O)C1Cc2c([nH]c3ccccc23)C(c2ccc(Cl)cc2)N1` (centres unmarked) [Compound 8, 1-(4-chlorophenyl)-N-(3,3-dimethylbutyl)-2,3,4,9-tetrahydro-1H-pyrido[3,4-b]indole-3-carboxamide], the IC50 in data set [1] was determined as 10.5 ± 1.53 µM. Besides, in data set [2], the IC50 was determined as 7.8 ± 1.54 µM and the “RI (resistance index)” value is recorded as 0.74. In addition, in data set [3], the IC50 at 72 h was determined as 17.9 ± 9.46 µM. Besides, in data set [4], the “SI D10” value was found to be 1.71 and the “SI W2” value came to 2.30.
In the case of `CC(C)(C)CC(C)(C)NC(=O)C1Cc2c([nH]c3ccccc23)C(c2ccc(Cl)cc2)N1` (centres unmarked) [Compound 9, 1-(4-chlorophenyl)-N-(2,4,4-trimethylpentan-2-yl)-2,3,4,9-tetrahydro-1H-pyrido[3,4-b]indole-3-carboxamide], the IC50 in data set [1] was 8.41 ± 1.2 µM. For the same compound, in data set [2], the IC50 came to 6.41 ± 1.05 µM and the “RI (resistance index)” value was 0.76. Moreover, in data set [3], the IC50 at 72 h is 18.9 ± 10.2 µM. Also, in data set [4], the “SI D10” value is recorded as 2.25 and the “SI W2” value is 2.95.
Turning to `O=C(NCC1CCCO1)C1Cc2c([nH]c3ccccc23)C(c2ccc(Cl)cc2)N1` (centres unmarked) [Compound 10, 1-(4-chlorophenyl)-N-((tetrahydrofuran-2-yl)methyl)-2,3,4,9-tetrahydro-1H-pyrido[3,4-b]indole-3-carboxamide], the IC50 in data set [1] was 29.4 ± 7.88 µM. Besides, in data set [2], the IC50 came out at 20.5 ± 2.2 µM and the “RI (resistance index)” value is reported as 0.70.
As for `O=C(NCC1COCCO1)C1Cc2c([nH]c3ccccc23)C(c2ccc(Cl)cc2)N1` (centres unmarked) [Compound 11, N-((1,4-dioxan-2-yl)methyl)-1-(4-chlorophenyl)-2,3,4,9-tetrahydro-1H-pyrido[3,4-b]indole-3-carboxamide], in data set [1], the IC50 was 35.4 ± 4.86 µM. Further, in data set [2], the IC50 was found to be 29.1 ± 4.05 µM and the “RI (resistance index)” value stood at 0.82.
Turning to `O=C(NCCCN1CCOCC1)C1Cc2c([nH]c3ccccc23)C(c2ccc(Cl)cc2)N1` (centres unmarked) [Compound 12, 1-(4-chlorophenyl)-N-(3-morpholinopropyl)-2,3,4,9-tetrahydro-1H-pyrido[3,4-b]indole-3-carboxamide], the IC50 in data set [1] was 11.5 ± 0.34 µM. In addition, in data set [2], the IC50 was determined as 6.15 ± 0.46 µM and the “RI (resistance index)” value was 0.54. For the same compound, the IC50 at 72 h in data set [3] was found to be 102 ± 14.8 µM. Further, in data set [4], the “SI D10” value stood at 8.91 and the “SI W2” value is reported as 16.60. For the same compound, in data set [5], the hemolysis at 10 µM was less than 5%.
`O=C(NCC1CCCCC1)C1Cc2c([nH]c3ccccc23)C(c2ccc(Cl)cc2)N1` (centres unmarked) [Compound 14, 1-(4-chlorophenyl)-N-(cyclohexylmethyl)-2,3,4,9-tetrahydro-1H-pyrido[3,4-b]indole-3-carboxamide]: the IC50 in data set [1] and in data set [2] was greater than 47.4 µM throughout.
`O=C(O)[C@@H]1Cc2c([nH]c3ccccc23)[C@@H](c2ccc(Cl)cc2Cl)N1` [MMV008138]: the IC50 in the data set on P. falciparum Dd2 strain is 0.25 µM.
